The source of these data is patent publication US20070190191A1, “Use of geraniol in antitumoral therapy” (priority 2003, published 2007).

Structures are written as SMILES. Read-outs that look alike come from different tables or passages of the source.

For data set [1], the system named is Caco-2 cells. Nature of the data set: Electron microscopy of Caco-2 cell morphological differentiation. Format: cell-based, human. The settings on record: confluent Caco-2 cells (7 days after seeding) treated 4 days; geraniol 400 μM, 5-FU 5 μM. As for the experimental part: Caco-2 and SW620 cells were obtained from the European Collection of Animal Cell Culture (CERDIC, Sophia Antipolis, France) and were cultured in 75-cm^2 Falcon flasks containing Dulbecco's modified Eagle's medium (DMEM) and 25 mM glucose supplemented with 10% heat-inactivated horse serum, 100 U/ml penicillin, and 100 μg/ml streptomycin. Cells were incubated at 37° C. in a humidified atmosphere of 5% CO2 and subcultured after trypsinization (0.5% trypsin/2.6 mM EDTA). They were used for up to 30 to 40 passages.
(§1) In all experiments, cells were seeded at 6×10^5 cells on culture dishes (100 mm in diameter), or at 4500 cells/well in 96-well plates. Caco-2 and SW620 cells were grown in DMEM supplemented with 3% horse serum, 5 μg/ml transferrin, 5 ng/ml selenium, and 10 μg/ml insulin (TSI defined medium; Invitrogen, SARL, Cergy-Pontoise, France). Geraniol (Sigma-Aldrich, Saint Louis, Mo.) was dissolved in absolute ethanol, and 5-FU (Teva Pharmachemie B.V., Mijdrecht, The Netherlands) was diluted in PBS at a final concentration of 50 mg/ml. The compounds were added to the culture medium 24 h or 7 days after cell seeding (final concentration of ethanol, 0.1%).
In all experimental conditions, culture medium, geraniol, and 5-FU were replaced every 24 h. […]

The subject of the next data set is confluent Caco-2 cells. Nature of the data set: Cell growth (sulforhodamine B), confluent Caco-2 cells. The settings on record: for cell loss: confluent Caco-2, 8 days treatment, geraniol 400 μM (IC30), 5-FU 1 μM. Format: cell-based, human. Here is the method:
as §1
In all experimental conditions, culture medium, geraniol, and 5-FU were replaced every 24 h. Cells were harvested after various times, washed three times with phosphate-buffered saline (PBS) (pH 7.2), and kept at −70° C. until assays were performed.
(§2) Cells were seeded in 96-well plates and incubated for different times. Cell growth was stopped by addition of 50 μl of trichloroacetic acid (50%, v/v), and the protein content of each well was determined by staining with sulforhodamine B (Skehan et al., 1990): Absorbance was determined at 490 nm.
The effects of increasing doses of 5-FU alone or in combination with geraniol were determined after treatment for 8 days. […] Geraniol and 5-FU were replaced every 24 h.
Statistical differences between control and geraniol-treated cells were evaluated using the Student's t test. Differences were considered to be significant for values of p<0.05.

For the next data set, the system named is growing Caco-2 cells. Nature of the data set: Cell growth (sulforhodamine B), exponentially growing Caco-2 cells. The data set is classed as cell-based, human. As for the experimental part:
as §1, §2
(§3) The comparative effects of geraniol and 5-FU were studied on exponentially growing Caco-2 and SW620 cells. Cells were cultured as described in Example 1. […]
(§4) The effects of graded doses of 5-FU alone or in combination with geraniol were determined. […]

The subject of another data set is SW620 cells. The data set can be described thus: Cell growth (sulforhodamine B), growing SW620 cells. The data set is classed as cell-based. The settings on record: Homo sapiens, SW-620, 192 h, 8 days treatment, in the combination geraniol at IC30, read-out: IC50 5-FU, SW620. Here is the method: as §1, §2, §3, §4
Data set [2] relates to Caco-2 cells. Nature of the data set: Apoptosis: DNA fragmentation ladder and annexin V-FITC labeling. The data set is classed as cell-based, human. The settings on record: exponentially growing and confluent Caco-2 cells, 24 h; 5-FU 5 μM, geraniol IC30 400 μM. Here is the method: After trypsinization, cells were collected by centrifugation and stored at −80° C. Apoptotic DNA was separated from genomic DNA, using the Suicide Track DNA ladder kit (Oncogene Research Products, Cambridge, Mass.). DNA fragments were separated by electrophoresis and stained with ethidium bromide. Apoptosis was further tested by evaluating phosphatidylserine membrane externalization by measuring annexin V-conjugated fluorescein isothiocyanate (FITC) binding using an Annexin V-FITC kit (Medsystems Diagnostics GmbH, Vienna, Austria). Briefly, cells were washed in cold PBS without calcium and, for each sample, 5×10^5 cells were resuspended in 100 μl of reaction buffer (10 μl of binding buffer 10-fold concentrated, 10 μl of propidium iodide, 1 μl of annexin V-FITC, and 79 μl of deionized water. After incubation for 15 min in the dark at room temperature, each sample was diluted with binding buffer to obtain an appropriate final volume for flow cytometry.

Data set [3] deals with human colonic tumors TC-118. Nature of the data set: Growth of 5-FU-resistant human colonic tumors transplanted in nude mice. The data set is classed as in vivo, Swiss nu/nu mice. The settings on record: day 14. As for the experimental part:
The effect of geraniol and 5-FU were evaluated in vivo on the growth of 5-FU-resistant human colonic tumors ([…]) transplanted in Swiss nu/nu mice. TC 118 is the hepatic metastasis of a primary human colorectal tumor is used as xénogreffe. Fresh fragments of the tumor are implanted in the subcutaneous tissue of female Swiss nulnu mice of from 5 to 6 weeks. The appearance of the tumor is watched by a bi-weekly exam of mice and the time of appearance is registered. Tumors are detected by palpation as soon as they measure approximately 3×3 mm (that is approximately 15 mm^3). […] Tumors are measured with a calliper rule, 3 times a week, until the sacrifice of the animal. Two perpendicular diameters are measured and the volumes of tumors are calculated according to the following equation: V=A×B^2/2 where A represents the large diameter and B the small diameter. The relative tumoral volume (VTR) is calculated according to the formula: VTR=Volume at day D/Initial volume […] When these molecules were given in combination, they were injected simultaneously. A control group was treated with excipient (NaCl 0.9%). The mean value of the VTR was calculated for every group on every day corresponding to the measure of tumors. The curves of tumoral growth were obtained in every experimental group or for every individual tumor by reporting the values of the VTR as a function of time (expressed in days after the beginning of the treatment). The measures were individually recorded, allowing a follow-up of the tumoral growth. […] Mice not presenting tumors were sacrificed at the same time. The percentage of inhibition of the tumoral growth was calculated at day 14 for the various treatments, according to the formula: (VTR of treated mice/VTR of control mice)×100. Results

For data set [4], the system named is Caco-2 cells. Nature of the data set: Caco-2 cell growth with CPT-11 and geraniol. Format: cell-based. To be noted: Homo sapiens, 192 h, Caco-2, 8 days treatment. Here is the method:
as §2
The effect of various doses of CPT-11 alone or in combination with geraniol was determined after 8 days of treatment of Caco-2 cells. Concentrations of CPT-11 of from 0.2 to 0.8 μM were tested and geraniol was used at a concentration which induces a 10% inhibition of the cell growth (IC10).

Data set [5] deals with Caco-2 cells. Nature of the data set: Brush-border membrane hydrolase assays (functional differentiation). Format: cell-based. To be noted: Homo sapiens, 168 h, 400 μM geraniol, Caco-2 at confluency (7 days after seeding), brush-border membranes. Here is the method:
Brush-border membranes were isolated as described by Schmitz et al. (1973). Sucrase activity was determined according to Messer and […] (1966) and lactase activity according to Koldovsky et al. (1969). Alkaline phosphatase activity was assayed by the method of Garen and […] (1960), and N-aminopeptidase activity was determined according to Maroux et al. (1973).

Data set [6] deals with Caco-2 cells. The data set can be described thus: Cytotoxicity by LDH release into the culture medium. The data set is classed as cell-based, human. To be noted: confluent Caco-2 (7 days after seeding), 4 days treatment, geraniol alone 400 μM.
Experimental: To determine cytotoxicity, cells (4×10^5/well) were seeded on culture dishes (100 nm diameter) and incubated in DMEM culture medium supplemented with 3% FCS. On the 7th day after seeding, cells were incubated with 5-FU (5 μM) alone or together with geraniol (IC30: 400 μM) and 5-FU for 1, 2, 3, and 4 days. Then, cytotoxicity was assessed by determining the release of lactate dehydrogenase (LDH) (Skehan et al., 1990) into the culture medium using the Cyto Tox R nonradioactive cytotoxicity assay kit (Promega, Madison, Wis.).

Consider `O=c1[nH]cc(F)c(=O)[nH]1` [5-FU, 5-fluorouracil], for which, in the data set on Caco-2 cells [1], the “brush-border microvilli (transmission electron microscopy)” value was “did not modify brush-border membranes”. The IC50 (as a rule, the point on the concentration scale where inhibition reaches its midpoint) in the data set with confluent Caco-2 cells (Homo sapiens, Caco-2, 192 h, 8 days treatment, in the combination geraniol at its IC30 (400 μM), read-out: IC50 5-FU, Caco-2 Confluent) came to 25 µM; in the data set on growing Caco-2 cells (Homo sapiens, Caco-2, 8 days treatment from 24 h after seeding, in the combination geraniol at its IC30 (200 μM), read-out: IC50 5-FU, Caco-2 Growing) it was 0.4 µM; with SW620 cells it was 2 µM. Moreover, the cell loss with confluent Caco-2 cells was found to be 25%. Further, the “annexin V labeling (flow cytometry)” value in the data set with Caco-2 cells [2] is “absence of annexin V labeling”. For the same molecule, the “apoptotic DNA fragmentation ladders” value with Caco-2 cells [2] was “did not exhibit apoptotic DNA fragmentation ladders”. The “inhibition of the tumoral growth” value was “no effect” in [3] (5-FU alone 20 mg/kg/day i.p. for 5 days) and 30% in [3] (5-FU alone 40 mg/kg/day i.p. for 5 days).

Take `CCc1c2c(nc3ccc(OC(=O)N4CCC(N5CCCCC5)CC4)cc13)-c1cc3c(c(=O)n1C2)COC(=O)[C@]3(O)CC` [CPT-11, irinotecan, reference compound]: the IC50 with Caco-2 cells [4] (in the combination geraniol at IC10, read-out: IC50 CPT-11) was 0.7 µM.

Take `CC(C)=CCC/C(C)=C/CO` [geraniol]: in the data set with Caco-2 cells [1], the “brush-border microvilli (transmission electron microscopy)” value is “microvilli were scarce, and they were shorter”. Further, the inhibition (as a rule, the change of the read-out against control, counted positive when it falls) at 400 µM in the data set on Caco-2 cells [5] (read-out: inhibition of the increase in alkaline phosphatase activity) is around 50%; in the data set on Caco-2 cells [5] (read-out: inhibition of the increase in aminopeptidase activity), around 50%; in the data set with Caco-2 cells [5] (read-out: inhibition of the increase of lactase activity), around 70%; in the data set on Caco-2 cells [5] (read-out: inhibition of the increase of sucrase activity), around 90%. Further, the figures for the IC30 of geraniol with confluent Caco-2 cells (Caco-2 cells at confluency) and in the data set on growing Caco-2 cells (growing Caco-2 cells) were 400 µM and 200 µM, respectively. Further, the cell loss in the data set with confluent Caco-2 cells is 30%. In the data set with Caco-2 cells [6], the “cytotoxic effect (LDH release)” value is given as “no cytotoxic effect”. Also, in data set [3] (geraniol alone 150 mg/kg/day i.p. for 5 days), the “inhibition of the tumoral growth” value was determined as 26%. The IC50 in the data set with Caco-2 cells [4] (in the combination CPT-11 at IC10, read-out: IC50 Geraniol) was found to be 200 ± 0.03 µM.
